Literature values as cited in patent publication US12370144B2, “Centanafadine pharmaceutical formulations, and methods of making and using same” (OTSUKA PHARMACEUTICAL CO., LTD., priority 2021, dated 2025).

Experiments:
[1] = target: serotonin reuptake transporter (SERT) (Homo sapiens, UniProt P31645); settings: fraction of the potency towards NET
[2] = target: dopamine reuptake transporter (DAT) (Homo sapiens, UniProt Q01959); settings: fraction of the potency towards NET
[3] = not told
[4] = target: norepinephrine reuptake transporter (NET) (Homo sapiens, UniProt P23975); settings: triple reuptake inhibitor, rank of potency
Sequence of norepinephrine reuptake transporter (NET) (P23975 whole entry): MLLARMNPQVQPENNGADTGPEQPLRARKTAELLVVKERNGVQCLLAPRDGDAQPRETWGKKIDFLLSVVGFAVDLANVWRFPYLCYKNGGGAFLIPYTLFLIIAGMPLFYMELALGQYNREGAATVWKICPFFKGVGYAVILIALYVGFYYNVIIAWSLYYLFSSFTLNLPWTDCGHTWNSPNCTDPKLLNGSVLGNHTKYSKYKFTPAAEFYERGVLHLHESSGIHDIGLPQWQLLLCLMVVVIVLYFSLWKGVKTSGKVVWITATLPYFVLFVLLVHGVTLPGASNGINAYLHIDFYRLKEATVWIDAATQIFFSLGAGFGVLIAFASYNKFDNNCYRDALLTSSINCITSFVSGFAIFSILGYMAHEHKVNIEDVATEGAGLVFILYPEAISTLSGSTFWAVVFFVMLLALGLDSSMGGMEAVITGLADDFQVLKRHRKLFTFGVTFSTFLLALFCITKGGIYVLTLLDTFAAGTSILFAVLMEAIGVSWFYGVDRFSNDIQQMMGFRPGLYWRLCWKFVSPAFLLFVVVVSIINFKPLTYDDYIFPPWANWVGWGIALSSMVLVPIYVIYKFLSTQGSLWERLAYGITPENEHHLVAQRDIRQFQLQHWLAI

Sequence of serotonin reuptake transporter (SERT) (P31645 whole entry, species assumed): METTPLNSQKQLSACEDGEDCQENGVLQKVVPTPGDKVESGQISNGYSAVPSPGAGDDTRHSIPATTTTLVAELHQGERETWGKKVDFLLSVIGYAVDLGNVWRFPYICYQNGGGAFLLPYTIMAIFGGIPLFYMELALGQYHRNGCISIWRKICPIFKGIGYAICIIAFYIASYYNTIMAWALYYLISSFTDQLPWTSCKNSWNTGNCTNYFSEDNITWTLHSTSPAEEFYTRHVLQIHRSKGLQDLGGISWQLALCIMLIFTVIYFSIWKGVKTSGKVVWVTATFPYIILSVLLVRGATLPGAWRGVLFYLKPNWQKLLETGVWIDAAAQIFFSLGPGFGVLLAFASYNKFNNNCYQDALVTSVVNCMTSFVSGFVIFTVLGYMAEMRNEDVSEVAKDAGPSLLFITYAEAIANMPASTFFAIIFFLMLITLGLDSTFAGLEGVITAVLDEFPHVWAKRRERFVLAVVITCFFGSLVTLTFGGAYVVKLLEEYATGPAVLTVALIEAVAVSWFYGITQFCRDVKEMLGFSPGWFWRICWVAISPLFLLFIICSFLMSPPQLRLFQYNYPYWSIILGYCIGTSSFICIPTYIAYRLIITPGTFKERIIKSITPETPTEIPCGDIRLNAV
Sequence of dopamine reuptake transporter (DAT) (Q01959 whole entry, species assumed): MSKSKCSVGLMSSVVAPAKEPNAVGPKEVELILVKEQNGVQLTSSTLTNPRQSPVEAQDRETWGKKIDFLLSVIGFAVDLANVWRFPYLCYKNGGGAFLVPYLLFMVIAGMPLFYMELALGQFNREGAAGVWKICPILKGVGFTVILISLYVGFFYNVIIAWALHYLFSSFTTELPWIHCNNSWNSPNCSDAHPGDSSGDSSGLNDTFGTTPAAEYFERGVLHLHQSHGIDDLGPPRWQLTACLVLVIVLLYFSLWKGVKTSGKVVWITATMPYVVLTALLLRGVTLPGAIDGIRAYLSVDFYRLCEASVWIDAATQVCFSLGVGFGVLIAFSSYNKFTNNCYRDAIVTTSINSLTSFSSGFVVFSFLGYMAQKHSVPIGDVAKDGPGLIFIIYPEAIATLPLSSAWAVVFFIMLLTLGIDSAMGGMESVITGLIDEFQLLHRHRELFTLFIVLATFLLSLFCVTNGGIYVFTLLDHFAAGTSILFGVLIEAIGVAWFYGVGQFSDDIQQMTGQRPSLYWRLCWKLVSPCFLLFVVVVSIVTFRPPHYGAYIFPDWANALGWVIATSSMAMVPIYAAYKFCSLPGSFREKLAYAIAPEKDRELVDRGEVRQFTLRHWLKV

**Q.** Which results are given for `c1ccc2cc([C@]34CNC[C@H]3C4)ccc2c1` [centanafadine, (1R,5S)-1-(naphthalen-2-yl)-3-azabicyclo[3.1.0]hexane]?
**A.** Potency towards SERT relative to NET [1]: one-fourteenth; Potency towards DAT relative to NET [2]: one-sixth; Permeability [3]: highly permeable; Potency towards NET [4]: most potency
